Reference: patent publication US6177103A, “Processes to generate submicron particles of water-insoluble compounds” (RTP Pharma, Inc., priority 1999, dated 2001)
Values belong to the molecule of their own block, whether it stands above or below them.

Legend:
[1] = Particle sizing by photon correlation spectroscopy, fenofibrate microparticles by RELGS process (Example 2); type: physicochemical; conditions: Lipoid E-80 and Tween-80 in liquefied carbon dioxide at 3000 psi expanded into water, 22° C.
Description: The particle sizing was performed by photon correlation spectroscopy using Submicron Particle Sizer-Autodilute Model 370 (NICOMP Particle Sizing Systems, Santa Barbara, Calif.). This instrument provides number weighted, intensity weighted, and volume weighted particle size distributions as well as multi-modality of the particle size distribution, if present.

[2] = cited from earlier work

mean particle size [1]: about 200 nm
Compound: CC(C)OC(=O)C(C)(C)Oc1ccc(C(=O)c2ccc(Cl)cc2)cc1 [Fenofibrate, fenofibrate]

Compound: CC1=C(/C=C/C(C)=C/C=C/C(C)=C/C=C/C=C(C)/C=C/C=C(C)/C=C/C2=C(C)CCCC2(C)C)C(C)(C)CCC1 [beta-carotene]
nanoparticle size ([2]; expansion of ethane into a viscous gelatin solution): 300 nm

Compound: CC[C@H](C)C(=O)O[C@H]1C[C@@H](C)C=C2C=C[C@H](C)[C@H](CC[C@@H]3C[C@@H](O)CC(=O)O3)[C@H]21 [lovastatin]
particle size ([2]; micro-particles by rapid expansion from liquefied-gas solution in the supercritical region, most particle sizes reported for organic materials): 5-100 micron
